For one assay, the system named is Haspin. Particulars: Figure 2; cited from earlier work.
The target of a further assay is T1, CDK5/p25 (Homo sapiens, UniProt Q00535).
T1 construct: made in house; host or cells: bacteria
The assay can be described thus: ADP-Glo in vitro kinase inhibition assay, CDK5/p25. It is filed as biochemical. Particulars: 10 μM ATP, read-out: CDK5 % residual activity; for remaining activity at 1 µM: 1 μM compound; for remaining activity at 10 µM: 10 μM compound. As for the experimental part: (§1) We previouly reported that substitution at the 3-position with halogen atoms or pyridinyl or formyl groups was compatible with high potency toward Haspin kinase. To check if the current structural changes were in line with potent Haspin inhibition and high selectivity, enabling consideration of these compounds as possible targeting ligands for the PROTAC approach, compounds 2, 3, 8–11, and 15–17 were evaluated toward a panel of eight protein kinases, including Haspin, as well as other kinases known to be frequently cross-inhibited (CLK1, DYRK1A, CDK9/Cyclin T, GSK-3β, CK1ε, CDK5/p25, and Pim1) (Table 1). The percentage of residual kinase activity was evaluated at 10 μM and 1 μM compound concentrations. […].
(§2) Kinase inhibition was tested in 384-well plates using the ADP-GloTM assay kit (Promega, Madison, WI, USA) according to the procedure recommended by the manufacturer. Reactions were set up in a final volume of 6 μL in an appropriate kinase buffer (10 mM MgCl2, 1 mM EGTA, 1 mM DTT, 25 mM Tris-HCl pH 7.5, 50 μg/mL heparin) with either protein or peptide as the substrate in the presence of 10 μM ATP. To stop the kinase reaction, 6 μL of ADP-GloTM Kinase Reagent was added after 30 min at 30 °C. Then, after 50 min of incubation at room temperature (RT), 12 μL of Kinase Detection Reagent was added. The transmitted signal was measured after 1 h at RT using the Envision (Perkin Elmer, Waltham, MA, USA) microplate luminometer and expressed in relative light units (RLU). In order to determine the half-maximal inhibitory concentration (IC50), all assays were performed in duplicate in the absence or presence of increasing doses of the tested compounds. GraphPad Prism10 software (GraphPad Software, San Diego, CA, USA) was used to fit dose–response curves and to determine the IC50 values. Kinase activities are given as percentages of maximal activity, i.e., measured in the absence of inhibitor. Peptide substrates were obtained from Proteogenix (Schiltigheim, France).
(§3) The following protein kinases were analyzed in this study: CDK5/p25 (human, vector pGEX-2T, expressed in bacteria; kindly provided by Dr. J. H. Wang) was assayed with 0.8 μg/μL of histone H1 as substrate; HsCDK9/CyclinT (NP_001252/KAI4065659, cloned in pTEFb vector, expressed by baculovirus in Sf9 insect cells) were assayed with 0.27 μg/μL of the following peptide: […], as substrate; HsCK1ε (NP_001885, cloned in pFAST-BAC vector, expressed in Sf9 insect cells) was assayed with 0.022 μg/μL of the following peptide: […]pAYSITA (“Sp” stands for phosphorylated serine) as CK1-specific substrate; HsGSK3β (AAH12760, cloned in pFAST-BAC, expressed by baculovirus in Sf9 insect cells) were assayed with 0.010 μg/μL of GS-1 peptide, a GSK-3-selective substrate ([…]pEDEEE); HsHaspin-kd (NP_114171, kinase domain, amino acids 470–798 cloned in pGEX-6P-3, expressed in bacteria) was assayed with 0.007 μg/μL of histone H3 (1–21) peptide ([…]) as substrate; Pim-1 (KAI4018123, expressed in bacteria) was assayed with 0.8 μg/μL of histone H1 as substrate; HsCLK1 (NP_004062, cloned in pFAST-BAC, expressed in Sf9 insect cells) was assayed with 0.027 μg/μL of the peptide: […]; RnDYRK1A-kd (Rattus norvegicus, amino acids 1–499, pGEX-2TK, expressed in bacteria, gift from Dr. W. Becker, Aachen, Germany) was tested in the presence of 0.033 μg/μL of the peptide: […].
A general note: ADP-Glo first removes unused ATP, then detects ADP through luciferase.

A further assay addresses T2, RnDYRK1A-kd (Rattus norvegicus, UniProt Q63470).
T2 construct: Rattus norvegicus, amino acids 1–499, pGEX-2TK; made in house; host or cells: bacteria
Nature of the assay: ADP-Glo in vitro kinase inhibition assay, DYRK1A. Particulars: 10 μM ATP, read-out: DYRK1A % residual activity; for remaining activity at 1 µM: 1 μM compound; for remaining activity at 10 µM: 10 μM compound. It is filed as biochemical. As to the method:
as §1, §2, §3

The target of another assay is T3, HsHaspin-kd (Homo sapiens, UniProt Q8TF76).
T3 construct: kinase domain, amino acids 470–798 cloned in pGEX-6P-3; made in house; host or cells: bacteria
T3 sequence (Q8TF76 470-798): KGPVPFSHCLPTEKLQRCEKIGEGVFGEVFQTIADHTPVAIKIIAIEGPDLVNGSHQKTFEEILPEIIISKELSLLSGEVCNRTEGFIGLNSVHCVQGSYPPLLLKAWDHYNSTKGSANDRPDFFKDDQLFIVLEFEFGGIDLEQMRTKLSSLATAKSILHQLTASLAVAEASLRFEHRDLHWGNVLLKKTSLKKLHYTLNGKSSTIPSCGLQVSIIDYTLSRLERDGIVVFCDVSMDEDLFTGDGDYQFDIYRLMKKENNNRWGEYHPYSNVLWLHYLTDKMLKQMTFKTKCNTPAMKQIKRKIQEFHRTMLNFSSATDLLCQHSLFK
The assay can be described thus: ADP-Glo in vitro kinase inhibition assay, Haspin. As to conditions: 10 μM ATP, duplicate; for remaining activity at 1 µM: 1 μM compound; for remaining activity at 1 µM / remaining activity at 10 µM: read-out: Haspin % residual activity; for remaining activity at 10 µM: 10 μM compound. The assay is classed as biochemical. As for the experimental part:
as §1, §2, §3

The target of a further assay is T4, Pim-1 (Homo sapiens, UniProt P11309).
T4 construct: made in house; host or cells: bacteria
The assay can be described thus: ADP-Glo in vitro kinase inhibition assay, Pim-1. It is filed as biochemical. As to conditions: 10 μM ATP, read-out: PIM1 % residual activity; for remaining activity at 1 µM: 1 μM compound; for remaining activity at 10 µM: 10 μM compound. As to the method: as §1, §2, §3

The target in a further assay is T5, HsGSK3β (Homo sapiens, UniProt P49841).
T5 construct: made in house; host or cells: Sf9 insect cells (baculovirus)
Nature of the assay: ADP-Glo in vitro kinase inhibition assay, GSK3β. The assay is classed as biochemical. As to conditions: 10 μM ATP, read-out: GSK3 % residual activity; for remaining activity at 1 µM: 1 μM compound; for remaining activity at 10 µM: 10 μM compound. As to the method:
as §1, §2, §3

In the next assay the target is T6, HsCLK1 (Homo sapiens, UniProt P49759).
T6 construct: made in house; host or cells: Sf9 insect cells
The assay can be described thus: ADP-Glo in vitro kinase inhibition assay, CLK1. The assay is classed as biochemical. As to conditions: 10 μM ATP, read-out: CLK1 % residual activity; for remaining activity at 1 µM: 1 μM compound; for remaining activity at 10 µM: 10 μM compound. As for the experimental part: as §1, §2, §3

The target in the next assay is T7, HsCK1ε (Homo sapiens, UniProt P49674).
T7 construct: made in house; host or cells: Sf9 insect cells
Nature of the assay: ADP-Glo in vitro kinase inhibition assay, CK1ε. The assay is classed as biochemical. As to conditions: 10 μM ATP, read-out: CK1 % residual activity; for remaining activity at 1 µM: 1 μM compound; for remaining activity at 10 µM: 10 μM compound. As to the method:
as §1, §2, §3

For a further assay, the target named is T8, HsCDK9/CyclinT (Homo sapiens, UniProt P50750).
T8 construct: made in house; host or cells: Sf9 insect cells (baculovirus)
The assay can be described thus: ADP-Glo in vitro kinase inhibition assay, CDK9/CyclinT. Particulars: 10 μM ATP, read-out: CDK9 % residual activity; for remaining activity at 1 µM: 1 μM compound; for remaining activity at 10 µM: 10 μM compound. The assay is classed as biochemical. As to the method:
as §1, §2, §3

Drawing on publication PMC12655252, “Synthesis of 1H-Pyrrolo[3,2-g]isoquinoline Derivatives as Ligands Targeting Haspin Kinase” (Molecules, 2025), this text covers IC50, remaining activity and Ki for eleven compounds.

The term IC50 denotes the concentration at which inhibition is half-maximal. What is called Ki is the dissociation constant of the complex between target and ligand, obtained from inhibition or displacement.

Consider `Nc1ncnc2c1c(I)cn2[C@@H]1O[C@H](CO)[C@@H](O)[C@H]1O` [5-Iodotubercidin, 5-iodotubercidin], for which the IC50 with Haspin was […].

T4 sequence (P11309 whole entry): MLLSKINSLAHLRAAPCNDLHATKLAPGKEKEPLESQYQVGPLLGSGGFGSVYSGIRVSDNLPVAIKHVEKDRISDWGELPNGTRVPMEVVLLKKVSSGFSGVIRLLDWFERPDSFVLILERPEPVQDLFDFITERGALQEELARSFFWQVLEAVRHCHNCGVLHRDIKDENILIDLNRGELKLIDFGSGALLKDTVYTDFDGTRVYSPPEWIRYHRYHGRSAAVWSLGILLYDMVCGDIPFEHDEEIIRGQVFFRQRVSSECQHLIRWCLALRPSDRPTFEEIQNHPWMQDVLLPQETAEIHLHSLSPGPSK
T1 sequence (Q00535 whole entry): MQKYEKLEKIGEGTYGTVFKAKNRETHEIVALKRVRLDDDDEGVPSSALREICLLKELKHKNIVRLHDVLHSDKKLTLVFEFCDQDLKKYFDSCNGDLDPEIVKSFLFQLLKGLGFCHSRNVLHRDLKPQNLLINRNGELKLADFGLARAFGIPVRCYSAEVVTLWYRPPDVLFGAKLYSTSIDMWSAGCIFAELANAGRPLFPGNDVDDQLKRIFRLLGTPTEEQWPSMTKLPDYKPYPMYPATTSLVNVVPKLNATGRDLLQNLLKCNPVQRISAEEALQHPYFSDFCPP
T1 sequence (Q15078 99-307 partner limits assumed): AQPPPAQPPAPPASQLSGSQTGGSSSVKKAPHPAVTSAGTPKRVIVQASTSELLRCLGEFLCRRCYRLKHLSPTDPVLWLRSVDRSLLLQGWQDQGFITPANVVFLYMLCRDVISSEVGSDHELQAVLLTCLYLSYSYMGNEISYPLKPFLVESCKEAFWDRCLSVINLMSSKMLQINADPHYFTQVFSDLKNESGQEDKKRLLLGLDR
T5 sequence (P49841 whole entry): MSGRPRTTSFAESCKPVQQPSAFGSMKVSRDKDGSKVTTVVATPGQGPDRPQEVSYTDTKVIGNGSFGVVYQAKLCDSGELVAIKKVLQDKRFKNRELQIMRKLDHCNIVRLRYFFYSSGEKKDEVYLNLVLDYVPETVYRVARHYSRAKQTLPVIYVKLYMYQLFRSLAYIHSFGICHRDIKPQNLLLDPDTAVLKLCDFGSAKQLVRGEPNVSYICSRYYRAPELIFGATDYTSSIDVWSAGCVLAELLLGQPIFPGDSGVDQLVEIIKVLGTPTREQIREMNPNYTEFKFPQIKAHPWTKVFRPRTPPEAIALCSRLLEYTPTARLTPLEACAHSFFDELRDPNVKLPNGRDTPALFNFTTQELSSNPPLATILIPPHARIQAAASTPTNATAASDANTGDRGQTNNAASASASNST
T7 sequence (P49674 whole entry): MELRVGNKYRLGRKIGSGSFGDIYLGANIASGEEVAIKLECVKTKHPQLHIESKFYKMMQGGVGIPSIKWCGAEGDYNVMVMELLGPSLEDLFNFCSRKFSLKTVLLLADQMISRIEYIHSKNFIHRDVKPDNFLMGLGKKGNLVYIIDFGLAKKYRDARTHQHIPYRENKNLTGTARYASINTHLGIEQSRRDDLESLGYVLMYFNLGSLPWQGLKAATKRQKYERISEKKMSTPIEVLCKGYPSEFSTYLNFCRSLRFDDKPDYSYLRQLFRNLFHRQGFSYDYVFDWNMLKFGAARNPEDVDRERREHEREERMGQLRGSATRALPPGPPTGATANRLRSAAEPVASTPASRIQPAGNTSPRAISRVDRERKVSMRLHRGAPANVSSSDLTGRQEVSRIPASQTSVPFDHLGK
T8 sequence (P50750 whole entry): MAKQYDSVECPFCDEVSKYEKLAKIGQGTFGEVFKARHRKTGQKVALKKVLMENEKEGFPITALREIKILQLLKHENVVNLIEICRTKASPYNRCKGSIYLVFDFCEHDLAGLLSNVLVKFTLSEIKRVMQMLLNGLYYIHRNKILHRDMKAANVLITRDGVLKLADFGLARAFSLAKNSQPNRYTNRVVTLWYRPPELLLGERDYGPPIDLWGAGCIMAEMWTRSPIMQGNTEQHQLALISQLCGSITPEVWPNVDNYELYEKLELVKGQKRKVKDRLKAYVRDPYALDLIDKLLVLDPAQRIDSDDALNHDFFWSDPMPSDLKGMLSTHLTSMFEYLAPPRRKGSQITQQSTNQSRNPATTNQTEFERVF
T8 sequence (O60563 whole entry partner): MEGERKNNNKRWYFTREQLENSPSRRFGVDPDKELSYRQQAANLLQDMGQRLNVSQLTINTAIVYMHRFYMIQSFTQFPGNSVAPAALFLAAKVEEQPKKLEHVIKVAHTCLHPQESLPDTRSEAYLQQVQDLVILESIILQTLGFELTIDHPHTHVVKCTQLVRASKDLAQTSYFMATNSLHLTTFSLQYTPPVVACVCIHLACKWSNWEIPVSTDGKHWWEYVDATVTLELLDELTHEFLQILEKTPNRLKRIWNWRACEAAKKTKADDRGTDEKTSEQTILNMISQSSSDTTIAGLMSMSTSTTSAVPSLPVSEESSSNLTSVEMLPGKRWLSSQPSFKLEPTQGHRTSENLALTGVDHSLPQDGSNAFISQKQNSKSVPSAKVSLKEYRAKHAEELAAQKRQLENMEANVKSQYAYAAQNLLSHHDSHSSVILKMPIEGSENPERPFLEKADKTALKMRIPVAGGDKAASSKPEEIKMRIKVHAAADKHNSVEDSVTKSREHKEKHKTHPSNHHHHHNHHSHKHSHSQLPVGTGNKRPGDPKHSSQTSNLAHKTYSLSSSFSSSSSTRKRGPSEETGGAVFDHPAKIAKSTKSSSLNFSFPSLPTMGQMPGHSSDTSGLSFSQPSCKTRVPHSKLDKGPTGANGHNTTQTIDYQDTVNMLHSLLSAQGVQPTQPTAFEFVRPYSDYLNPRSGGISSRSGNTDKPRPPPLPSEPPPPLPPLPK
T6 sequence (P49759 whole entry): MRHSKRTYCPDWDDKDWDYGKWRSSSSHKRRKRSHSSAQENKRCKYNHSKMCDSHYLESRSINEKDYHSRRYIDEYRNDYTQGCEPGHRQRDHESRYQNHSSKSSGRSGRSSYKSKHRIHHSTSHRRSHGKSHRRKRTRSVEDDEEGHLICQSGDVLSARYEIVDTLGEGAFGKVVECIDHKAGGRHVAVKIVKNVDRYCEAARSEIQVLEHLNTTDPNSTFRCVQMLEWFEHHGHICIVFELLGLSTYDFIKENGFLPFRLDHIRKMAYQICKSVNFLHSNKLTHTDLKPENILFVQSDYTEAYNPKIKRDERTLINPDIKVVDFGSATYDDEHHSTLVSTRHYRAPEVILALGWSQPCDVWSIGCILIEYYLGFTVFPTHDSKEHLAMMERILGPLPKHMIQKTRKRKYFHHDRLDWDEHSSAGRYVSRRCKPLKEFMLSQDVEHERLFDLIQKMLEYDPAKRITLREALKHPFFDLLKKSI

As to `Clc1cc(-c2c[nH]c3cc4cnccc4cc23)ccn1` [Compound 2, 3-(2-Chloro-pyridin-4-yl)-1H-pyrrolo[3,2-g]isoquinoline], the remaining activity at 1 µM came to 100% at CDK5/p25; 20% on RnDYRK1A-kd; 9% at HsHaspin-kd; 20% on Pim-1; 76% at HsGSK3β; 56% on HsCLK1. Moreover, the remaining activity at 1 µM on HsCK1ε was 79%; on HsCDK9/CyclinT, 81%. Also, the remaining activity at 10 µM at CDK5/p25 came out at 100%; on RnDYRK1A-kd, 16%; at HsHaspin-kd, 8%; on Pim-1, 14%; at HsGSK3β, 81%; at HsCLK1, 27%. The remaining activity at 10 µM at HsCK1ε came to 54%; at HsCDK9/CyclinT it was 56%. This compound registered an IC50 against HsHaspin-kd of 10.1 nM.

For `CC(C)(C)OC(=O)/C=C/c1c[nH]c2cc3cnccc3cc12` [Compound 9, tert-Butyl (E)-3-(1H-Pyrrolo[3,2-g]isoquinolin-3-yl)prop-2-enoate], the remaining activity at 1 µM on CDK5/p25 was 100%; at RnDYRK1A-kd, 51%; at HsHaspin-kd, 30%; at Pim-1, 42%; on HsGSK3β it was 80%; at HsCLK1, 86%. For the same compound, the remaining activity at 1 µM at HsCK1ε stood at 92%; on HsCDK9/CyclinT it was 79%. Further, the remaining activity at 10 µM at CDK5/p25 was 100%; at RnDYRK1A-kd, 28%; at HsHaspin-kd, 12%; on Pim-1, 21%; on HsGSK3β, 80%; at HsCLK1, 48%. Also, the remaining activity at 10 µM on HsCK1ε was found to be 87%; at HsCDK9/CyclinT, 32%. The same compound yielded an IC50 on HsHaspin-kd of 392 nM.

For `COC(=O)CCc1c[nH]c2cc3cnccc3cc12` [Compound 10, Methyl 3-(1H-Pyrrolo[3,2-g]isoquinolin-3-yl)propanoate], the remaining activity at 1 µM on CDK5/p25 stood at 100%; on RnDYRK1A-kd, 72%; at HsHaspin-kd, 45%; at Pim-1 it was 72%; on HsGSK3β it was 100%; on HsCLK1, 91%. For the same compound, the figures for the remaining activity at 1 µM at HsCK1ε and at HsCDK9/CyclinT were 100% and 90%, respectively. Moreover, the remaining activity at 10 µM on CDK5/p25 is 100%; at RnDYRK1A-kd, 32%; on HsHaspin-kd, 10%; at Pim-1, 52%; on HsGSK3β, 99%; at HsCLK1 it was 60%. In addition, the values for the remaining activity at 10 µM on HsCK1ε and at HsCDK9/CyclinT were 97% and 72%, respectively. The IC50 against HsHaspin-kd came to 82.1 nM.

With `CC(C)(C)OC(=O)CCc1c[nH]c2cc3cnccc3cc12` [Compound 11, tert-Butyl 3-(1H-Pyrrolo[3,2-g]isoquinolin-3-yl)propanoate], the remaining activity at 1 µM was found to be 100% on CDK5/p25; 58% at RnDYRK1A-kd; 70% on HsHaspin-kd; 70% at Pim-1; 83% at HsGSK3β; 98% on HsCLK1. Besides, the remaining activity at 1 µM was determined as 98% at HsCK1ε and 100% at HsCDK9/CyclinT. The remaining activity at 10 µM at CDK5/p25 turned out to be 100%; on RnDYRK1A-kd, 31%; at HsHaspin-kd it was 52%; on Pim-1, 60%; at HsGSK3β it was 94%; at HsCLK1 it was 81%. For the same compound, the values for the remaining activity at 10 µM at HsCK1ε and at HsCDK9/CyclinT were 81% and 86%, respectively.

`Cc1ccc(NC(=O)c2ccc3c(c2)c(CNCCN2CCNCC2)cn3C)cc1C` [Compound A]: the IC50 with Haspin is 0.01 nM.

For the compound `COc1ccc2c(c1)[nH]c1c(C)nccc12` [Harmine, harmine], the IC50 in the assay on Haspin was 590 nM.

Take `COc1ccc2nc3ccc(OC)cc3c(SCCCN)c2c1` [LDN-192960]: the IC50 in the assay on Haspin was […].

For `COc1ccc2nc3ccc(Cl)cc3c(SCCCN)c2c1` [LDN-209929], the IC50 with Haspin is 55 nM.

On to `C#Cc1cn([C@@H]2S[C@H](CN=[N+]=[N-])[C@@H](O)[C@H]2O)c2ncnc(N)c12` [LJ-4827], for which the Ki on Haspin is 0.465 nM.

For harmol, in the assay on Haspin, the IC50 is 770 nM.
